Assay: heat capacity at constant pressure per volume; xn = mol fraction of the nth substance listed
Details: DSC

Cc1cccc(C)n1 [2,6-dimethylpyridine] + O
Liquid mixture 1, x1 = 0.066
Details	heat capacity [J/K/m3]
270.67 K	3943000
271.17 K	3939000
271.67 K	3932000
272.17 K	3933000
272.67 K	3929000
273.17 K	3934000
273.67 K	3928000
274.17 K	3930000
274.67 K	3924000
275.17 K	3925000
275.67 K	3922000
276.17 K	3920000
276.67 K	3918000
277.17 K	3918000
277.67 K	3919000
278.17 K	3918000
278.67 K	3916000
279.17 K	3913000
279.67 K	3916000
280.17 K	3914000
280.67 K	3914000
281.18 K	3913000
281.68 K	3910000
282.18 K	3910000
282.68 K	3907000
283.18 K	3907000
283.68 K	3904000
284.18 K	3907000
284.68 K	3905000
285.18 K	3909000
285.68 K	3905000
286.18 K	3903000
286.68 K	3907000
287.18 K	3907000
287.68 K	3910000
288.18 K	3913000
288.68 K	3913000
289.18 K	3912000
289.68 K	3912000
290.18 K	3910000
290.68 K	3913000
291.18 K	3912000
291.68 K	3913000
292.18 K	3916000
292.68 K	3917000
293.18 K	3915000
293.68 K	3911000
294.18 K	3914000
294.68 K	3914000
295.18 K	3913000
295.68 K	3912000
296.18 K	3913000
296.68 K	3912000
297.18 K	3914000
297.69 K	3914000
298.19 K	3918000
298.69 K	3919000
299.19 K	3916000
299.78 K	3918000
299.99 K	3916000
300.2 K	3912000
300.41 K	3920000
300.62 K	3927000
300.84 K	3944000
301.05 K	3932000
301.26 K	3930000
301.47 K	3942000
301.69 K	3950000
301.9 K	3947000
302.11 K	3945000
302.32 K	3932000
302.54 K	3934000
302.75 K	3933000
302.96 K	3962000
303.17 K	3969000
303.38 K	3938000
303.6 K	3938000
303.81 K	3935000
304.02 K	3948000
304.23 K	3973000
304.44 K	3963000
304.66 K	3960000
304.87 K	3953000
305.08 K	3960000
305.29 K	3975000
305.51 K	3976000
305.72 K	3956000
305.93 K	4006000
306.14 K	4011000
306.36 K	4082000
306.57 K	4075000

102.6 kPa, Liquid, x1 = 0.066
Details	heat capacity [J/K/m3]
306.78 K	4520000
306.99 K	4372000
307.2 K	4347000
307.42 K	4321000
307.63 K	4254000
307.84 K	4227000
308.05 K	4182000
308.27 K	4223000
308.48 K	4199000
308.69 K	4189000
308.9 K	4170000
309.12 K	4188000
309.33 K	4206000
309.54 K	4165000
309.75 K	4175000
309.96 K	4206000
310.18 K	4189000
310.39 K	4172000
310.6 K	4170000
310.81 K	4154000
311.03 K	4103000
311.24 K	4121000
311.45 K	4142000
311.66 K	4101000
311.88 K	4141000
312.09 K	4083000
312.3 K	4117000
312.51 K	4078000
312.73 K	4100000

CC1CCCC(C)N1 (stereo not drawn) [2,6-dimethylpiperidine] + [2H]O[2H]
Liquid mixture 1, x1 = 0.054
Details	heat capacity [J/K/m3]
270.36 K	4851000
270.67 K	4851000
270.98 K	4850000
271.3 K	4843000
271.61 K	4841000
271.92 K	4831000
272.23 K	4822000
272.54 K	4813000
272.85 K	4803000
273.16 K	4797000
273.47 K	4793000
273.78 K	4785000
274.1 K	4778000
274.41 K	4775000
274.72 K	4768000
275.03 K	4764000
275.34 K	4752000
275.65 K	4755000
275.96 K	4749000
276.27 K	4742000
276.58 K	4732000
276.89 K	4728000
277.21 K	4720000
277.52 K	4717000
277.83 K	4706000
278.14 K	4700000
278.45 K	4697000
278.76 K	4694000
279.07 K	4693000
279.38 K	4689000
279.69 K	4685000
280 K	4677000
280.32 K	4675000
280.63 K	4668000
280.94 K	4667000
281.25 K	4661000
281.56 K	4654000
281.87 K	4654000
282.18 K	4653000
282.49 K	4642000
282.8 K	4640000
283.12 K	4641000
283.43 K	4645000
283.74 K	4645000
284.05 K	4638000
284.36 K	4635000
284.67 K	4627000
284.98 K	4628000
285.29 K	4633000
285.6 K	4630000
285.91 K	4623000
286.23 K	4610000
286.54 K	4617000
286.85 K	4623000
287.16 K	4612000
287.47 K	4611000
287.78 K	4609000
288.09 K	4606000
288.6 K	4566000
288.82 K	4558000
289.05 K	4578000
289.28 K	4580000
289.51 K	4581000
289.74 K	4539000
289.96 K	4559000
290.19 K	4609000
290.42 K	4604000
290.65 K	4587000
290.88 K	4581000
291.11 K	4554000
291.33 K	4556000
291.56 K	4590000
291.79 K	4592000
292.02 K	4589000
292.25 K	4578000
292.48 K	4643000
292.71 K	4602000
292.94 K	4606000
293.16 K	4623000
293.39 K	4660000
293.62 K	4615000
293.85 K	4629000
294.08 K	4700000
294.31 K	4655000
294.53 K	4669000
294.76 K	4707000
294.99 K	4644000
295.22 K	4708000
295.45 K	4694000
295.68 K	4733000
295.9 K	4759000
296.13 K	4861000
296.36 K	5146000

102.6 kPa, Liquid, x1 = 0.054
Details	heat capacity [J/K/m3]
296.59 K	5567000
296.82 K	5424000
297.05 K	5334000
297.28 K	5260000
297.5 K	5164000
297.73 K	5179000
297.96 K	5136000
298.19 K	5070000
298.42 K	5083000
298.65 K	5094000
298.88 K	5093000
299.1 K	5111000
299.33 K	5023000
299.56 K	5049000
299.79 K	5063000
300.02 K	5028000
300.25 K	5015000
300.48 K	5009000
300.7 K	4961000
300.93 K	4977000
301.16 K	4985000
301.39 K	4958000
301.62 K	4957000
301.85 K	4945000
302.07 K	4916000
302.3 K	4889000
302.53 K	4922000

CC1CCCC(C)N1 (stereo not drawn) [2,6-dimethylpiperidine] + O
Liquid mixture 1, x1 = 0.055
Details	heat capacity [J/K/m3]
264 K	4559000
264.47 K	4560000
264.95 K	4546000
265.42 K	4529000
265.9 K	4518000
266.37 K	4505000
266.84 K	4492000
267.32 K	4480000
267.79 K	4471000
268.26 K	4448000
268.74 K	4442000
269.21 K	4429000
269.68 K	4420000
270.16 K	4409000
270.63 K	4398000
271.1 K	4391000
271.58 K	4375000
272.05 K	4367000
272.52 K	4356000
273 K	4342000
273.47 K	4341000
273.94 K	4336000
274.42 K	4322000
274.89 K	4313000
275.36 K	4305000
275.84 K	4293000
276.31 K	4289000
276.78 K	4278000
277.25 K	4274000
277.73 K	4266000
278.2 K	4260000
278.68 K	4252000
279.15 K	4250000
279.62 K	4239000
280.1 K	4237000
280.57 K	4227000
281.04 K	4227000
281.51 K	4221000
281.99 K	4216000
282.46 K	4215000
282.94 K	4208000
283.41 K	4206000
283.88 K	4199000
284.36 K	4195000
284.83 K	4191000
285.3 K	4189000
285.77 K	4182000
286.25 K	4178000
286.72 K	4177000
287.19 K	4174000
287.67 K	4174000
288.14 K	4172000
288.61 K	4170000
289.09 K	4171000
289.56 K	4167000
290.03 K	4166000
290.51 K	4165000
290.98 K	4166000
291.45 K	4165000
291.93 K	4166000
292.6 K	4164000
292.81 K	4147000
293.02 K	4141000
293.23 K	4164000
293.45 K	4134000
293.66 K	4144000
293.87 K	4164000
294.08 K	4166000
294.3 K	4164000
294.51 K	4144000
294.72 K	4183000
294.93 K	4155000
295.14 K	4142000
295.36 K	4144000
295.57 K	4153000
295.78 K	4178000
295.99 K	4155000
296.2 K	4175000
296.42 K	4213000
296.63 K	4189000
296.84 K	4188000
297.06 K	4228000
297.27 K	4210000
297.48 K	4217000
297.69 K	4232000
297.9 K	4249000
298.12 K	4247000
298.33 K	4277000
298.54 K	4280000
298.75 K	4295000
298.96 K	4312000
299.18 K	4375000
299.39 K	4534000

102.6 kPa, Liquid, x1 = 0.055
Details	heat capacity [J/K/m3]
299.6 K	5314000
299.81 K	5077000
300.03 K	5010000
300.24 K	4873000
300.45 K	4815000
300.66 K	4801000
300.88 K	4772000
301.09 K	4785000
301.3 K	4742000
301.51 K	4632000
301.73 K	4641000
301.94 K	4672000
302.15 K	4625000
302.36 K	4675000
302.57 K	4597000
302.79 K	4600000
303 K	4544000
303.21 K	4578000
303.42 K	4592000
303.64 K	4555000
303.85 K	4564000
304.06 K	4532000
304.27 K	4520000
304.49 K	4530000
304.7 K	4519000
304.91 K	4468000
305.12 K	4514000
305.33 K	4463000
305.55 K	4423000
305.76 K	4443000

Reference: the NIST ThermoML archive (doi:10.1016/j.fluid.2015.10.027)
